Experimental findings from PubChem BioAssay AID651642 (Sanford-Burnham Center for Chemical Genomics, 2012) are described below.

In general, IC50 refers to the concentration that inhibits the measured activity by half. Higher therefore signals weaker potency in that assay.

One assay deals with H9c2. Nature of the assay: protection of cardiomyocytes from stress damage, SAR follow-up, cell-based, panel, H9c2 and HL-1, H2O2, 2-deoxyglucose, ATP luminescence (AID 651642).
The subject of a further assay is HL-1. The assay is described as above.
[1] abbreviates: H9c2/HL-1 cardiomyocyte 2-deoxyglucose damage, mean of runs, with 2-deoxyglucose, mean IC50 across panel.
[2] abbreviates: H9c2/HL-1 cardiomyocyte 2-deoxyglucose damage, run 1, with 2-deoxyglucose.
Where [3] appears, read: H9c2/HL-1 cardiomyocyte 2-deoxyglucose damage, run 2, with 2-deoxyglucose.
The mark [4] stands for this setting: H9c2/HL-1 cardiomyocyte 2-deoxyglucose damage, run 3, with 2-deoxyglucose.
The mark [5] stands for this setting: H9c2/HL-1 cardiomyocyte 2-deoxyglucose damage, run 4, with 2-deoxyglucose.
The mark [6] stands for this setting: H9c2/HL-1 cardiomyocyte H2O2 oxidative damage, run 1, with H2O2.
Where [7] appears, read: H9c2/HL-1 cardiomyocyte H2O2 oxidative damage, run 2, with H2O2.
The mark [8] stands for this setting: H9c2/HL-1 cardiomyocyte H2O2 oxidative damage, run 3, with H2O2.
The mark [9] stands for this setting: H9c2/HL-1 cardiomyocyte H2O2 oxidative damage, run 4, with H2O2.
Where [10] appears, read: H9c2/HL-1 cardiomyocyte H2O2 oxidative damage, mean of runs, with H2O2, mean IC50 across panel.

As to `CCOC(=O)c1cccc(NC(=O)c2cc(-c3cc(OC)c(OC)c(OC)c3)nc3ccccc23)c1`, the concentration for half-maximal inhibition (IC50) in the assay with H9c2 (setting [1]) is more than 79 µM; in the assay on H9c2 (setting [2]) it was more than 79 µM; in the assay with H9c2 (setting [3]), more than 79 µM; with H9c2 (setting [4]), more than 79 µM; in the assay on H9c2 (setting [5]) it was more than 79 µM; in the assay on H9c2 (setting [6]) it was 3.9 µM. The 50% inhibitory concentration (IC50) in the assay with H9c2 (setting [7]) is 4.44 µM; in the assay with H9c2 (setting [8]), more than 79 µM; in the assay with H9c2 (setting [9]), more than 79 µM; with HL-1 (setting [2]), 3.23 µM; in the assay on HL-1 (setting [3]), 3.46 µM; with HL-1 (setting [4]), more than 79 µM. Further, the IC50 in the assay with HL-1 (setting [5]) is more than 79 µM; in the assay on HL-1 (setting [10]) it was 4.62 µM; in the assay with HL-1 (setting [6]) it was 3.4 µM; in the assay on HL-1 (setting [7]) it was 4.59 µM; with HL-1 (setting [8]), 3.78 µM; in the assay on HL-1 (setting [9]) it was 6.72 µM.

With `COc1cccc(CNC(=O)CNC(=O)c2cc(-c3cc(OC)c(OC)c(OC)c3)nc3ccccc23)c1`, the IC50 with H9c2 (setting [2]) is 38.6 µM; with H9c2 (setting [3]), 40.8 µM; in the assay with H9c2 (setting [4]), more than 79 µM; in the assay with H9c2 (setting [5]), more than 79 µM; with H9c2 (setting [10]), 5.76 µM; in the assay on H9c2 (setting [6]) it was 5.74 µM. In addition, the IC50 in the assay on H9c2 (setting [7]) turned out to be 7.73 µM; in the assay on H9c2 (setting [8]), 4.38 µM; in the assay on H9c2 (setting [9]), 5.17 µM; in the assay on HL-1 (setting [1]), 15.2 µM; in the assay on HL-1 (setting [2]), 9.87 µM; with HL-1 (setting [3]), 10.8 µM. Moreover, the IC50 is 17.7 µM in the assay on HL-1 (setting [4]); 22.6 µM in the assay on HL-1 (setting [5]); more than 79 µM in the assay with HL-1 (setting [6]); 13.1 µM with HL-1 (setting [7]); 6.25 µM in the assay with HL-1 (setting [8]); 7.97 µM in the assay with HL-1 (setting [9]).

`CCOC(=O)c1cccc(NC(=O)c2cc(-c3cc(OC)c(OC)c(OC)c3)nc3ccc(OC)cc23)c1`: the IC50 was more than 79 µM in the assay on H9c2 (setting [2]); 24.6 µM in the assay with H9c2 (setting [3]); 35.6 µM with H9c2 (setting [4]); 44.4 µM in the assay on H9c2 (setting [5]); 2.56 µM in the assay with H9c2 (setting [10]); 2.7 µM in the assay with H9c2 (setting [6]). In addition, the IC50 in the assay on H9c2 (setting [7]) was 2.92 µM; in the assay on H9c2 (setting [8]), 2.05 µM; with H9c2 (setting [9]), 2.56 µM; in the assay on HL-1 (setting [2]), 2.77 µM; with HL-1 (setting [3]) it was 2.79 µM; in the assay on HL-1 (setting [4]), more than 79 µM. Further, the IC50 is more than 79 µM with HL-1 (setting [5]); 4.24 µM with HL-1 (setting [6]); 4.51 µM in the assay with HL-1 (setting [7]); more than 79 µM in the assay with HL-1 (setting [8]); 2.3 µM in the assay with HL-1 (setting [9]).

For the molecule `COc1cc(-c2cc(C(=O)Nc3cccc(C(=O)O)c3)c3ccccc3n2)cc(OC)c1OC`, the IC50 in the assay on H9c2 (setting [1]), with H9c2 (setting [2]), in the assay with H9c2 (setting [3]), in the assay with H9c2 (setting [4]), in the assay on H9c2 (setting [5]) and in the assay on H9c2 (setting [10]) was more than 79 µM each time. Further, the IC50 in the assay on H9c2 (setting [6]), in the assay on H9c2 (setting [7]), in the assay with H9c2 (setting [8]), in the assay with H9c2 (setting [9]), in the assay with HL-1 (setting [1]) and in the assay on HL-1 (setting [2]) was more than 79 µM in each case. Further, the IC50 in the assay with HL-1 (setting [3]), in the assay on HL-1 (setting [4]), in the assay on HL-1 (setting [5]), with HL-1 (setting [10]), with HL-1 (setting [6]) and in the assay with HL-1 (setting [7]) was more than 79 µM each time. Besides, the IC50 with HL-1 (setting [8]) and in the assay with HL-1 (setting [9]) was more than 79 µM in each case.

With `COc1ccc2c(c1OC)C(=O)N1c3ccccc3C(=O)N(Cc3c(Cl)cccc3Cl)C21` (centres undefined), the IC50 was more than 79 µM in the assay on H9c2 (setting [1]); more than 79 µM in the assay with H9c2 (setting [2]); more than 79 µM in the assay on H9c2 (setting [3]); more than 79 µM in the assay with H9c2 (setting [4]); more than 79 µM in the assay with H9c2 (setting [5]); 3.42 µM in the assay with H9c2 (setting [6]). Also, the IC50 in the assay with H9c2 (setting [7]) is 3.73 µM; in the assay on H9c2 (setting [8]), more than 79 µM; with H9c2 (setting [9]) it was more than 79 µM; with HL-1 (setting [2]), 6.31 µM; in the assay with HL-1 (setting [3]) it was 6.5 µM; in the assay on HL-1 (setting [4]), more than 79 µM. The IC50 with HL-1 (setting [5]), in the assay on HL-1 (setting [10]), in the assay on HL-1 (setting [6]), with HL-1 (setting [7]), in the assay with HL-1 (setting [8]) and in the assay with HL-1 (setting [9]) was more than 79 µM in each case.

On to `CCOC(=O)c1cccc(NC(=O)c2cc(-c3cc(OC)c(OC)c(OC)c3)nc3cc(Cl)ccc23)c1`, for which the IC50 in the assay on H9c2 (setting [1]), in the assay on H9c2 (setting [2]), in the assay with H9c2 (setting [3]), in the assay with H9c2 (setting [4]), in the assay on H9c2 (setting [5]) and with H9c2 (setting [6]) was more than 79 µM in each case. Besides, the IC50 with H9c2 (setting [7]) was 31.1 µM; in the assay on H9c2 (setting [8]), more than 79 µM; in the assay on H9c2 (setting [9]) it was more than 79 µM; with HL-1 (setting [1]), more than 79 µM; in the assay on HL-1 (setting [2]), more than 79 µM; with HL-1 (setting [3]), more than 79 µM. The IC50 with HL-1 (setting [4]) was more than 79 µM; with HL-1 (setting [5]), more than 79 µM; with HL-1 (setting [6]), more than 79 µM; with HL-1 (setting [7]), more than 79 µM; with HL-1 (setting [8]), 6.51 µM; with HL-1 (setting [9]), 6.76 µM.
